Data from PubChem BioAssay (NCI).
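48-hour exposure; five concentrations; linearly interpolated endpoints. At the GI50, growth is halved. At the TGI there is no net growth.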

Assays:
Experiment in all cases: NCI tumour cell line growth inhibition, 48 h
786-0 renal = tested on: 786-0 renal
A498 renal = tested on: A498 renal
A549 NSCLC = tested on: A549 NSCLC
ACHN renal = tested on: ACHN renal
BT-549 breast = tested on: BT-549 breast
CAKI-1 renal = tested on: CAKI-1 renal
COLO 205 colon = tested on: COLO 205 colon
DU-145 prostate = tested on: DU-145 prostate
EKVX NSCLC = tested on: EKVX NSCLC
HCC-2998 colon = tested on: HCC-2998 colon
HCT-116 colon = tested on: HCT-116 colon
HCT-15 colon = tested on: HCT-15 colon
HOP-62 NSCLC = tested on: HOP-62 NSCLC
HOP-92 NSCLC = tested on: HOP-92 NSCLC
HS 578T breast = tested on: HS 578T breast
HT29 colon = tested on: HT29 colon
IGROV1 ovarian = tested on: IGROV1 ovarian
K-562 leukemia = tested on: K-562 leukemia
KM12 colon = tested on: KM12 colon
M14 melanoma = tested on: M14 melanoma
MALME-3M melanoma = tested on: MALME-3M melanoma
MCF7 breast = tested on: MCF7 breast
MDA-MB-231 breast = tested on: MDA-MB-231 breast
MDA-MB-435 = tested on: MDA-MB-435
MDA-N = tested on: MDA-N
NCI-H226 lung = tested on: NCI-H226 lung
NCI-H23 lung = tested on: NCI-H23 lung
NCI-H460 lung = tested on: NCI-H460 lung
NCI-H522 lung = tested on: NCI-H522 lung
NCI/ADR-RES ovarian = tested on: NCI/ADR-RES ovarian
OVCAR-3 ovarian = tested on: OVCAR-3 ovarian
OVCAR-4 ovarian = tested on: OVCAR-4 ovarian
OVCAR-5 ovarian = tested on: OVCAR-5 ovarian
OVCAR-8 ovarian = tested on: OVCAR-8 ovarian
PC-3 prostate = tested on: PC-3 prostate
RPMI-8226 leukemia = tested on: RPMI-8226 leukemia
RXF 393 renal = tested on: RXF 393 renal
SF-268 CNS = tested on: SF-268 CNS
SF-295 CNS = tested on: SF-295 CNS
SF-539 CNS = tested on: SF-539 CNS
SK-MEL-2 melanoma = tested on: SK-MEL-2 melanoma
SK-MEL-28 melanoma = tested on: SK-MEL-28 melanoma
SK-MEL-5 melanoma = tested on: SK-MEL-5 melanoma
SK-OV-3 ovarian = tested on: SK-OV-3 ovarian
SN12C renal = tested on: SN12C renal
SNB-19 CNS = tested on: SNB-19 CNS
SNB-75 CNS = tested on: SNB-75 CNS
SW-620 colon = tested on: SW-620 colon
T-47D breast = tested on: T-47D breast
TK-10 renal = tested on: TK-10 renal
U251 CNS = tested on: U251 CNS
UACC-257 melanoma = tested on: UACC-257 melanoma
UACC-62 melanoma = tested on: UACC-62 melanoma
UO-31 renal = tested on: UO-31 renal

Oc1c(Cl)cc(C(c2cc(Cl)c(O)c(Cl)c2)C(c2cc(Cl)c(O)c(Cl)c2)c2cc(Cl)c(O)c(Cl)c2)cc1Cl
GI50 (786-0 renal): 3.49 µM | TGI (786-0 renal): 16.7 µM | GI50 (A498 renal): 10.1 µM | TGI (A498 renal): 26.3 µM | GI50 (A549 NSCLC): 3.73 µM | TGI (A549 NSCLC): 36.4 µM | GI50 (ACHN renal): 5.21 µM | TGI (ACHN renal): 20.3 µM | GI50 (BT-549 breast): 3.23 µM | TGI (BT-549 breast): 36.9 µM | GI50 (CAKI-1 renal): 3.45 µM | TGI (CAKI-1 renal): 13.6 µM | GI50 (COLO 205 colon): 10.6 µM | TGI (COLO 205 colon): 28.9 µM | GI50 (DU-145 prostate): 3.63 µM | TGI (DU-145 prostate): 14.1 µM | GI50 (EKVX NSCLC): 3.35 µM | TGI (EKVX NSCLC): 17.2 µM | GI50 (HCC-2998 colon): 3.79 µM | TGI (HCC-2998 colon): 14.3 µM | GI50 (HCT-116 colon): 2.36 µM | TGI (HCT-116 colon): 10.8 µM | GI50 (HCT-15 colon): 2.57 µM | TGI (HCT-15 colon): 13.7 µM | GI50 (HOP-62 NSCLC): 6.28 µM | TGI (HOP-62 NSCLC): 19.2 µM | GI50 (HOP-92 NSCLC): 3.44 µM | TGI (HOP-92 NSCLC): 13.6 µM | GI50 (HS 578T breast): 4.54 µM | TGI (HS 578T breast): 57.4 µM | GI50 (HT29 colon): 4.36 µM | TGI (HT29 colon): 16.3 µM | GI50 (IGROV1 ovarian): 5.29 µM | TGI (IGROV1 ovarian): 16.8 µM | GI50 (K-562 leukemia): 13.1 µM | TGI (K-562 leukemia): 38 µM | GI50 (KM12 colon): 2.85 µM | TGI (KM12 colon): 11.8 µM | GI50 (M14 melanoma): 4.25 µM | TGI (M14 melanoma): 18.8 µM | GI50 (MALME-3M melanoma): 5.88 µM | TGI (MALME-3M melanoma): 30.4 µM | GI50 (MCF7 breast): 3.18 µM | TGI (MCF7 breast): 15.8 µM | GI50 (MDA-MB-231 breast): 6.22 µM | TGI (MDA-MB-231 breast): 26.4 µM | GI50 (MDA-MB-435): 5.64 µM | TGI (MDA-MB-435): 19.2 µM | GI50 (MDA-N): 4.07 µM | TGI (MDA-N): 19 µM | GI50 (NCI-H226 lung): 25.7 µM | GI50 (NCI-H23 lung): 3.68 µM | TGI (NCI-H23 lung): 16.3 µM | GI50 (NCI-H460 lung): 2.59 µM | TGI (NCI-H460 lung): 18.7 µM | GI50 (NCI-H522 lung): 6.36 µM | TGI (NCI-H522 lung): 47.5 µM | GI50 (NCI/ADR-RES ovarian): 10.7 µM | TGI (NCI/ADR-RES ovarian): 38 µM | GI50 (OVCAR-3 ovarian): 3.12 µM | TGI (OVCAR-3 ovarian): 11.9 µM | GI50 (OVCAR-4 ovarian): 7.11 µM | TGI (OVCAR-4 ovarian): 94.4 µM | GI50 (OVCAR-5 ovarian): 12.3 µM | TGI (OVCAR-5 ovarian): 24.8 µM | GI50 (OVCAR-8 ovarian): 4.11 µM | TGI (OVCAR-8 ovarian): 22.3 µM | TGI (PC-3 prostate): 13.8 µM | GI50 (RPMI-8226 leukemia): 3 µM | TGI (RPMI-8226 leukemia): 12.4 µM | GI50 (RXF 393 renal): 1.34 µM | TGI (RXF 393 renal): 4.11 µM | GI50 (SF-268 CNS): 5.09 µM | GI50 (SF-295 CNS): 3.51 µM | TGI (SF-295 CNS): 16.3 µM | GI50 (SF-539 CNS): 5.33 µM | TGI (SF-539 CNS): 20.4 µM | GI50 (SK-MEL-2 melanoma): 2.92 µM | TGI (SK-MEL-2 melanoma): 7.33 µM | GI50 (SK-MEL-28 melanoma): 5.27 µM | TGI (SK-MEL-28 melanoma): 54.3 µM | GI50 (SK-MEL-5 melanoma): 2.89 µM | TGI (SK-MEL-5 melanoma): 14.8 µM | GI50 (SK-OV-3 ovarian): 11.3 µM | TGI (SK-OV-3 ovarian): 23.4 µM | GI50 (SN12C renal): 2.41 µM | TGI (SN12C renal): 8.99 µM | GI50 (SNB-19 CNS): 3.51 µM | TGI (SNB-19 CNS): 17.3 µM | GI50 (SNB-75 CNS): 3.08 µM | TGI (SNB-75 CNS): 7.87 µM | GI50 (SW-620 colon): 6.6 µM | TGI (SW-620 colon): 23 µM | GI50 (T-47D breast): 1.74 µM | TGI (T-47D breast): 12.5 µM | GI50 (TK-10 renal): 7.05 µM | TGI (TK-10 renal): 21.5 µM | GI50 (U251 CNS): 3.03 µM | TGI (U251 CNS): 10.7 µM | GI50 (UACC-257 melanoma): 7.75 µM | TGI (UACC-257 melanoma): 23.9 µM | GI50 (UACC-62 melanoma): 3 µM | TGI (UACC-62 melanoma): 12.5 µM | GI50 (UO-31 renal): 0.573 µM | TGI (UO-31 renal): 8.04 µM
